Measurements: article PMC9008576, “Characterization of Agarolytic Pathway in a Terrestrial Bacterium Cohnella sp. LGH” (Frontiers in Microbiology, 2022)

Key:
[1] = tested on: T1, CL4994; experiment: agarotriose consumption, non-linear regression; assay type: biochemical, Cohnella sp. LGH; settings: 10 mM potassium phosphate pH 7.0, 30°C, 10 min, 0.5–7.5 mg/ml substrate
T1 construct: pET29a (KpnI/XhoI), E. coli BL21(DE3) pLysS, Ni-NTA (vector tags kept); GH2

[2] = biological target: T2, AgWH2A (Agarivorans gilvus, UniProt A0A2Z4WWH8); experiment: TLC of products; assay type: biochemical; settings: 10 mM potassium phosphate pH 7.5, 30°C, 4 h; positive control enzyme
T2 construct: gene lacZ; pET29a (SalI/XhoI), E. coli BL21(DE3) pLysS, Ni-NTA (vector tags kept)
T2 sequence (A0A2Z4WWH8 1-753): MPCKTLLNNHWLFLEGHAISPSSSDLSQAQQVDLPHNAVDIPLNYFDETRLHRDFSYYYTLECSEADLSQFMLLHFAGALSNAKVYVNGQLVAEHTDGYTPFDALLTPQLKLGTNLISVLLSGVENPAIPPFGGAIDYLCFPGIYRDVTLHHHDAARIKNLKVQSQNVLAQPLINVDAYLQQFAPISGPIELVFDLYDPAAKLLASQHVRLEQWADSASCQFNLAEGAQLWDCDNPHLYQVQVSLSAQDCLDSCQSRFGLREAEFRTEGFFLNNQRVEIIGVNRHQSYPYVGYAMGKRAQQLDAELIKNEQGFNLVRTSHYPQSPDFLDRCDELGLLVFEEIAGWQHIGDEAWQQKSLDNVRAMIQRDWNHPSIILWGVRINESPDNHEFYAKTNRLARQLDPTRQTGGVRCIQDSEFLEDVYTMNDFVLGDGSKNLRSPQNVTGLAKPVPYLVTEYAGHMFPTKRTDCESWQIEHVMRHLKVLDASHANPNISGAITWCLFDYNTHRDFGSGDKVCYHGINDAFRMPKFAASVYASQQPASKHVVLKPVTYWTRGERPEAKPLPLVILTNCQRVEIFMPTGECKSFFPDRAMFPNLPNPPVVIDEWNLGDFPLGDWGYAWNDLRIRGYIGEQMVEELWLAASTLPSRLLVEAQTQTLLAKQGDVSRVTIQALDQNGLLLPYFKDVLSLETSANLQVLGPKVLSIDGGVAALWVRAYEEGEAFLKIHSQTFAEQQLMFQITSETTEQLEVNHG

[3] = tested on: T3, CL5012; experiment: L-AHG release, non-linear regression; assay type: biochemical, Cohnella sp. LGH; settings: 10 mM Tris-HCl pH 8.0, 35°C, 10 min, 0.5–7.5 mg/ml substrate
T3 construct: pET29a (NdeI/XhoI), E. coli BL21(DE3) pLysS, Ni-NTA (C-terminal His tag likely); GH117

| Compound | Km [1] [mg ml^–1] | TLC of products [2] | Km [3] [mg ml^–1] |
| --- | --- | --- | --- |
| OC[C@H]1O[C@@H](O[C@H]2[C@H]3OC[C@@H]2O[C@@H](O[C@H]2[C@@H](O)[C@@H](CO)OC(O)[C@@H]2O)[C@H]3O)[C@H](O)[C@@H](O)[C@H]1O (stereo partly drawn) [agarotriose] | 3.90 | depolymerization products of agarotriose by the reported ABG AgWH2A | – |
| OC[C@H]1OC(O)[C@H](O)[C@@H](O[C@@H]2O[C@H]3CO[C@@H]([C@@H]2O)[C@@H]3O)[C@H]1O (stereo partly drawn) [neoagarobiose] | – | – | 4.45 |
